In patent publication US20060104951A1, “Akt and regulation of RA synovial fibroblast apoptosis” (priority 2004, published 2006):
Like-named read-outs stand apart in the source and are kept apart here.

How the values were obtained:
[1] = system: phosphorylated Akt (Thr308); assay: Immunohistochemical staining of phosphorylated Akt in primary RASF; settings: TNF-α 10 ng/ml alone vs PBS, 18 hours
Procedure: To determine if this TNF-α survival signal involves a PI 3-kinase dependent mechanism, RASF and OASF are treated with TNF-α (10 ng/ml), using PBS as a control, in the presence and absence of the PI 3-kinase inhibitor, wortmannin (50 nM). After 18 hours, the synovial fibroblasts are stained using an antibody specific for phosphorylated-Akt.
The in-situ expression of phosphorylated-Akt is determined by staining fixed cells with an antibody specific for Thr308 phosphorylated Akt (New England Biolabs, Beverly, Mass.). Quenching of endogenous peroxidase is performed by incubating tissue sections with 3% H2O2 at RT for 10 min in a humidified chamber. After washing with PBS, tissue sections are incubated with 0.1% trypsin at 37° C. for 10 min to reveal fixed antigen epitopes. Tissue sections are then treated with denaturing solution at 20° C. for 30 min and blocking solution at RT for 10 min followed by incubation with a horseradish peroxidase (HRP) conjugated antibody specific for phosphorylated-Akt antibody (New England Biolabs, Beverly, Mass.). Slides are incubated with DAB staining kit (DAKO) for color development then counterstained with methyl green. At least 5 areas from each specimen are chosen randomly for assessment of the percentage of Akt-positive cells.

[2] = system: Akt; assay: Akt kinase assay (immunoprecipitated Akt, GSK-3 fusion protein substrate) in OASF; format: cell-based, human; settings: TNF-α 10 ng/ml
Procedure: Active Akt phosphorylates GSK-3 at […].
Akt kinase assay of RA synovial fibroblasts is performed using Akt kinase assay kit according to the protocol provided by manufacturer (New England Biolabs, Beverly, Mass.). Briefly, three hundreds micrograms of total proteins from RA synovial fibroblasts are added into Akt antibody coated beads, incubated at 4° C. for 3 hours followed by washing. Phosphorylation of GSK-3 is used as an indicator of phosphorylated Akt, since Akt negatively regulates GSK-3a/b kinase activity via phosphorylation of GSK-3 at […]. After the kinase reaction, the reaction mixture is electrophoresed on a 12% SDS-PAGE gel and western blotted. The blots are probed with an anti-phospho-GSK-3a/b (Ser219) antibody (rabbit polyclonal IgG, affinity purified).

[3] = system: phosphorylated Akt; assay: Western blot of phosphorylated-Akt in RASF lysates; settings: TNF-α 10 ng/ml alone
Procedure: The levels of phosphorylated-Akt are determined by Western blot analysis of lysates from RASF and OASF cell lines.
To determine the optimal amount of AdAkt-DN required to inhibit Akt phosphorylation, RASF is transfected with either 50 pfu/cell of AdGFP or with 5 pfu/cell or with 50 pfu/cell of AdAkt-DN respectively for 18 hr. The cells are then stimulated with TNFα (10 ng/ml) for 18 hr.
For evaluation of the phosphorylated form of Akt, the synovial cells are washed twice with ice-cold PBS followed by incubation with 200 μl of cell lysis buffer (20 mmol/L Tris [pH 7.4], 150 mmol/L NaCl, 1 mmol/L EDTA, 1 mmol/L EGTA, 1% Triton, 2.5 mmol/L sodium pyrophosphate, 1 mmol/L β-glycerophosphate, 1 mmol/L Na3VO4, 1 μg/mL leupeptin, and 1 mmol/L PMSF) for 5 min on ice. The cells are then harvested by scraping and sonicated using a Branson Sonicator (3×5 seconds, output control 2, duty cycle 100%) on ice. After centrifugation for 10 min at 20,000 g at 4° C., the protein concentration of the supernatant is determined using the Bio-Rad protein assay kit (Bio-Rad, Hercules, Calif.). […] Phosphorylated Akt is detected using the PhosphoPlus Akt antibody kit (New England Biolabs, Beverly, Mass.).

[4] = target: T1, Akt (Homo sapiens, UniProt P31749); design: many cells; H2O2-treated B cells; settings: Cell: Many; cited from earlier work
T1 sequence (P31749 whole entry): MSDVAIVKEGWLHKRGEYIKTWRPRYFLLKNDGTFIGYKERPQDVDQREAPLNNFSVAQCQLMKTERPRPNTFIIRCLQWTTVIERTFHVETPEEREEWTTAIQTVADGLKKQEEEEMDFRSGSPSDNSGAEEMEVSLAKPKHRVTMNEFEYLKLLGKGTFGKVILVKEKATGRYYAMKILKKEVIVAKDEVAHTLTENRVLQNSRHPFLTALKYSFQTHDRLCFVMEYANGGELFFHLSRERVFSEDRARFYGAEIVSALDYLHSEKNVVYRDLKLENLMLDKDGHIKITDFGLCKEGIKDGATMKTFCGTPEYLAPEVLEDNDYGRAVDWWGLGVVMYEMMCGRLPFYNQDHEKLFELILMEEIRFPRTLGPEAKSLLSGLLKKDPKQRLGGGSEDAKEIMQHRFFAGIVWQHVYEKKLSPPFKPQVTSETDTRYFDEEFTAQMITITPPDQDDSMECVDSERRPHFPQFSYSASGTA

[5] = target: T1, Akt; design: many cells; H2O2-treated B cells; settings: Cell: IL-2 activated T cell; cited from earlier work
[6] = system: rheumatoid arthritis synovial fibroblasts (RASF); assay: ATPlite-M cytotoxicity assay in RASF; settings: wortmannin alone, 18 hours
[7] = target: T1, Akt; settings: Cell: HL-60 K562; cited from earlier work

For tumor necrosis factor-alpha [TNF-α], the “production of phosphorylated Akt (immunohistochemical staining)” value [1] was “greatly enhanced production of phosphorylated Akt”, the Akt kinase activity [2] was “did not induce Akt kinase activity” and the “levels of phosphorylated-Akt (Western blot)” value [3] was “marked increase”.

For “Insulin-like growth factor-1: growth factor known to activate Akt”, the Action [4] is listed as “Activates Akt”.

In the case of `C[S+]([O-])c1ccc(-c2nc(-c3ccncc3)c(-c3ccc(F)cc3)[nH]2)cc1` (centres unmarked) [SB 203580], the Action [5] is listed as “Block Akt”.

With `COC[C@H]1OC(=O)c2coc3c2[C@@]1(C)C1=C(C3=O)[C@@H]2CCC(=O)[C@@]2(C)C[C@H]1OC(C)=O` [wortmannin] the “cytotoxicity (ATPlite)” value [6] was “Neither treatment with TNF-α nor wortmannin alone could induce cytotoxicity”.

For `Cc1ccc(NC(=O)c2ccc(CN3CCN(C)CC3)cc2)cc1Nc1nccc(-c2cccnc2)n1` [CGP57148B], the Action [7] is listed as “Block Akt”.

For PDGF, the Action [4] is listed as “Activates Akt”.
